# Legend:
# Assay in all cases: 3H GABA uptake, HEK293T, mutant cDNA alone ("homozygous")
# Type in all cases: cell-based
# Settings in all cases: PBA 2 mM, 24 hrs
# GAT-1 A288V = target: T1, GAT-1 A288V (Rattus norvegicus, UniProt P23978, A288V)
# T1 construct: The coding region of rGAT-1 was inserted into pEYFP-C1 (Clontech, Palo Alto, CA); expressed in transfected cells; host or cells: HEK293T cells (A4); astrocytes from corrected human iPSCs (A24)
# Procedure: (§1) GABA uptake activity was measured by the high-throughput 3H radio-labeling GABA uptake on a liquid scintillator with QuantaSmart. […] HEK293T cells were transfected with the wildtype or the mutant GAT-1^YFP cDNAs alone for 48 hr. […] HEK293T cells were transfected with the wildtype GAT-1^YFP alone or in mixture of the wildtype or the mutant cDNAs for 48 hr. In the mixed condition, the ratio of the wildtype GAT-1 with pcDNA or the mutant cDNAs are 1:1 with the total cDNA amount of 0.5 μg. […] Both wt and the mutant were normalized to its own DMSO treated conditions. 966 stands for the wildtype treated with CI-966 (50 μM) while 711 stands for NNC-711 (35 μM). (N=4-7 different transfections. In FIG. 4A and FIG. 4B, *P<0.05, **P<0.01, ***p<0.001 vs. wt 0. In FIG. C and FIG. 4D, *P<0.05, **P<0.01, ***p<0.001 vs. its own DMSO treated. In FIG. 4C, ns stands for no significance. One-way analysis of variance (ANOVA) and Newman-Keuls test. Values were expressed as mean±S.E.M.
# (§2) The plasmid cDNA encoding enhanced yellow fluorescent protein (EYFP)-tagged rat GAT-1 has been previously described. The coding region of rGAT-1 was inserted into pEYFP-C1 (Clontech, Palo Alto, CA). QuikChange Site-directed Mutagenesis kit was utilized to introduce the GAT-1 variants into a wildtype GAT-1 plasmid. The product was then amplified via polymerase chain reaction, transformed using DH5a competent cells, and plated. A clone was chosen and grown overnight. All the GAT-1 variants were confirmed by DNA sequencing. Both the wildtype and the variant cDNAs were prepared with Qiagen Maxiprep kit.
# (§3) Human embryonic kidney cells were cultured as monolayers in 100 mm^2 dishes. Cells were cultured in Dulbecco's Modified Eagle's Medium supplemented with 10% FBS and 1% penicillin/streptomycin in 37° C. in 5% CO2/95% air. Cells were maintained in culture medium until appropriate confluency for experimentation.
# (§4) Briefly, cells were cultured in […] dishes for 3 days before the GABA uptake experiment in DMEM with 10% fetal bovine serum and 1% penicillin/streptomycin. The cells were then transfected with equal amounts of the wildtype or the mutant GAT-1 cDNAs (1 μg) for each condition at 24 hrs or 48 hrs after plating. GABA uptake assay was carried out 48 hrs after transfection. The cells were incubated with preincubation solution for 15 min and then incubated with preincubation solution containing 1 μci/mL 3H GABA and 10 μM unlabeled GABA for 30 min at room temperature. After washing, the cells were lysed with 0.25 N NaOH for 1 hr. Glacial acetic acid was added, and lysates were then determined on a liquid scintillator with QuantaSmart. The flux of GABA (pmol/μg/min) was averaged with at least triplets for each condition at each transfection. The average counting was taken as n=1. The untransfected condition was taken as a baseline that was subtracted from both the wildtype and the mutant conditions. The pmol/μg/min in the mutant was then normalized to the wildtype from each experiment, which was arbitrarily taken as 100%. The protocols for GABA reuptake assay in cultured mouse astrocytes, neuron or iPSC derived cells were modified from the GABA uptake protocol on HEK 293T cells. GAT-1 inhibitors CL-966 and NNC-711 were applied each time to make sure the radioactive counts were specific.
# (§5) The working solution was stored at 4° C.
# GAT-1 D410E = target: T2, GAT-1 D410E (Rattus norvegicus, UniProt P23978, D410E)
# T2 construct: The coding region of rGAT-1 was inserted into pEYFP-C1 (Clontech, Palo Alto, CA); expressed in transfected cells; host or cells: HEK293T cells (A7); astrocytes from corrected human iPSCs (A27)
# Procedure: as §1, §2, §3, §4, §5
# GAT-1 G326R = target: T3, GAT-1 G326R (Rattus norvegicus, UniProt P23978, G362R)
# T3 construct: The coding region of rGAT-1 was inserted into pEYFP-C1 (Clontech, Palo Alto, CA); expressed in transfected cells; host or cells: HEK293T cells
# Procedure: as §1, §2, §3, §4, §5
# GAT-1 S295L = target: T4, GAT-1 S295L (Rattus norvegicus, UniProt P23978, S295L)
# T4 construct: The coding region of rGAT-1 was inserted into pEYFP-C1 (Clontech, Palo Alto, CA); expressed in transfected cells; host or cells: HEK293T cells (A5); astrocytes from corrected human iPSCs (A25)
# Procedure: as §1, §2, §3, §4, §5
# GAT-1 V125M = target: T5, GAT-1 V125M (Rattus norvegicus, UniProt P23978, V125M)
# T5 construct: The coding region of rGAT-1 was inserted into pEYFP-C1 (Clontech, Palo Alto, CA); expressed in transfected cells; host or cells: HEK293T cells (A3); astrocytes from corrected human iPSCs (A23)
# Procedure: as §1, §2, §3, §4, §5
# GAT-1 W495X = target: T6, GAT-1 W495X (Rattus norvegicus, UniProt P23978)
# T6 construct: expressed in transfected cells; host or cells: HEK293T cells
# Procedure: as §1, §2, §3, §4, §5
smiles,measurement,setting,value
"O=C(O)CCCc1ccccc1 [PBA, 4-phenylbutyric acid]",GABA uptake normalized to its own DMSO treated condition,GAT-1 A288V,1.22±0.063
same,GABA uptake normalized to its own DMSO treated condition,GAT-1 D410E,1.236±0.074
same,GABA uptake normalized to its own DMSO treated condition,GAT-1 G326R,1.185±0.065
same,GABA uptake normalized to its own DMSO treated condition,GAT-1 S295L,1.386±0.058
same,GABA uptake normalized to its own DMSO treated condition,GAT-1 V125M,1.378±0.056
same,GABA uptake normalized to its own DMSO treated condition,GAT-1 W495X,1.323±0.054
